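All cell lines were grown in 96-well plates and treated with compound for 48 hours. Here, GI50 denotes the concentration required for 50% inhibition of growth.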 Activity calls are given as the source filed them. Rule as the data show it: active = GI50 up to about 1.1 µM and inactive = higher.
Experiments:
Experiment in all cases: NCI anticancer screen, dose series, 48 h
[1] = system: SR
[2] = system: HOP-92
[3] = system: MOLT-4
[4] = system: SN12C
[5] = system: OVCAR-4
[6] = system: NCI-H522
[7] = system: SNB-75
[8] = system: IGROV-1
[9] = system: ACHN
[10] = system: SF-295
[11] = system: HT-29
[12] = system: EKVX
[13] = system: UO-31
[14] = system: OVCAR-8
[15] = system: HOP-62
[16] = system: TK-10
[17] = system: SK-MEL-28
[18] = system: CCRF-CEM
[19] = system: LOX IMVI
[20] = system: HCC 2998

Row | SMILES | GI50 [1] | GI50 [2] | GI50 [3] | GI50 [4] | GI50 [5] | GI50 [6] | GI50 [7] | GI50 [8] | GI50 [9] | GI50 [10] | GI50 [11] | GI50 [12] | GI50 [13] | GI50 [14] | GI50 [15] | GI50 [16] | GI50 [17] | GI50 [18] | GI50 [19] | GI50 [20]
1 | CN(C)CC(CO)(CN(C)C)CN(C)C | > 100 µM (inactive) | > 100 µM (inactive) | > 100 µM (inactive) | > 100 µM (inactive) | > 100 µM (inactive) | > 100 µM (inactive) | > 100 µM (inactive) | > 100 µM (inactive) | > 100 µM (inactive) | > 100 µM (inactive) | > 100 µM (inactive) | > 100 µM (inactive) | > 100 µM (inactive) | > 100 µM (inactive) | > 100 µM (inactive) | > 100 µM (inactive) | > 100 µM (inactive) | > 100 µM (inactive) | – | –
2 | O=c1[nH]cnc2c(COCCCO)c[nH]c12 | > 100 µM (inactive) | > 100 µM (inactive) | > 100 µM (inactive) | > 100 µM (inactive) | – | > 100 µM (inactive) | > 100 µM (inactive) | > 100 µM (inactive) | > 100 µM (inactive) | > 100 µM (inactive) | > 100 µM (inactive) | > 100 µM (inactive) | > 100 µM (inactive) | > 100 µM (inactive) | > 100 µM (inactive) | > 100 µM (inactive) | > 100 µM (inactive) | > 100 µM (inactive) | > 100 µM (inactive) | –
3 | CN(c1ccc(C(=O)c2ccc(N(C)S(C)(=O)=O)cc2)cc1)S(C)(=O)=O | 59.8 µM (inactive) | > 100 µM (inactive) | 47 µM (inactive) | > 100 µM (inactive) | > 100 µM (inactive) | 94.2 µM (inactive) | 83.6 µM (inactive) | – | 77.8 µM (inactive) | 78.2 µM (inactive) | > 100 µM (inactive) | 86.5 µM (inactive) | 75.7 µM (inactive) | > 100 µM (inactive) | – | > 100 µM (inactive) | 54.6 µM (inactive) | > 100 µM (inactive) | – | –
4 | CC(C)N(C(=O)C1(O)c2ccccc2C=Cc2ccccc21)C(C)C | 23.3 µM (inactive) | – | 23.7 µM (inactive) | 16.3 µM (inactive) | 22.5 µM (inactive) | 12.5 µM (inactive) | – | 14.8 µM (inactive) | 16.1 µM (inactive) | 17.8 µM (inactive) | 15.3 µM (inactive) | 16.6 µM (inactive) | 21.1 µM (inactive) | 16.9 µM (inactive) | 19.2 µM (inactive) | 18 µM (inactive) | 17.2 µM (inactive) | – | – | –
5 | COc1ccc(Nc2nc(N)c(C(=O)c3c[nH]c4ccccc34)s2)cc1 | 0.0655 µM (active) | 5.36 µM (inactive) | 0.478 µM (active) | 3.61 µM (inactive) | 5.42 µM (inactive) | 0.0302 µM (active) | 1.57 µM (inactive) | 1.13 µM (inactive) | 5.12 µM (inactive) | 0.5 µM (active) | 0.583 µM (active) | 3.05 µM (inactive) | 3.52 µM (inactive) | 2.36 µM (inactive) | 8.02 µM (inactive) | 5.56 µM (inactive) | 14.9 µM (inactive) | 2.16 µM (inactive) | 2.01 µM (inactive) | –
6 | CC12C3C4C1C1C2C3C41CO (configuration not stated) | > 100 µM (inactive) | > 100 µM (inactive) | > 100 µM (inactive) | > 100 µM (inactive) | > 100 µM (inactive) | – | 34 µM (inactive) | > 100 µM (inactive) | > 100 µM (inactive) | > 100 µM (inactive) | > 100 µM (inactive) | > 100 µM (inactive) | > 100 µM (inactive) | > 100 µM (inactive) | – | > 100 µM (inactive) | > 100 µM (inactive) | > 100 µM (inactive) | > 100 µM (inactive) | –
7 | COc1ccc(C(=O)c2c3cc(OC)c(OC)c(OC)c3cc[n+]2C)cc1 | 14.8 µM (inactive) | – | 20.5 µM (inactive) | 31.8 µM (inactive) | – | 19.2 µM (inactive) | 27.9 µM (inactive) | 34.8 µM (inactive) | 26.5 µM (inactive) | – | 30.3 µM (inactive) | 55.3 µM (inactive) | 26 µM (inactive) | 35.7 µM (inactive) | 28.2 µM (inactive) | 46.5 µM (inactive) | 28.5 µM (inactive) | 20.9 µM (inactive) | – | 50.2 µM (inactive)
8 | COc1c(CC(C)O)c2c3c(CC(C)O)c(OC)c(=O)c4c(O)cc5c(c6c(cc(O)c(c1=O)c62)OCO5)c43 (configuration not stated) [CERCOSPORIN] | 1.37 µM (inactive) | 2.3 µM (inactive) | 1.75 µM (inactive) | 1.57 µM (inactive) | 1.38 µM (inactive) | 1.82 µM (inactive) | 2.38 µM (inactive) | 1.69 µM (inactive) | 1.63 µM (inactive) | 1.91 µM (inactive) | 0.364 µM (active) | – | 2.14 µM (inactive) | 1.74 µM (inactive) | 1.99 µM (inactive) | 2.62 µM (inactive) | 1.86 µM (inactive) | 2.72 µM (inactive) | 0.711 µM (active) | –

Reference: ChEMBL document CHEMBL1201862, “PubChem BioAssay data set” (2004)
